From EP0720988A1, “Pseudopeptides containing trifluoromethyl substituted 2-azabicyclooctane” (BAYER AG, priority 1995, dated 1996)
Where a name gives a salt, the structure may show the parent alone. Read-outs that look alike come from different tables or passages of the source.

How the values were obtained:
HIV-1-Protease [1] = biological target: T1, HIV-1-Protease (Human immunodeficiency virus type 1 group M subtype B, UniProt P04585); experiment: HIV-specific protease enzyme assay (purified HIV protease, synthetic peptide substrate, RP-HPLC analysis of cleavage products); type: biochemical; details: synthetic peptide imitating a Gag precursor cleavage site, 50% inhibition of protease activity
T1 construct: Gereinigte HIV-Protease wurde mit synthetischem Peptid
From the text: Es wurde überraschend gefunden, daß die Verbindungen der allgemeinen Formel (I) eine außerordentlich starke Wirkung gegen Retroviren besitzen. Dies wird mit einem HIV-spezifischen Protease-Enzymtest belegt.
Die Ergebnisse der unten aufgeführten Beispiele wurden nach dem in den folgenden Literaturangaben [vgl. Hansen, J., Billich, S., Schulze, T., Sukrow, S. and Mölling, K. (1988), EMBO Journal, Vol, 7, No. 6, pp. 1785 - 1791] beschriebenen HIV-Testsystem ermittelt: Gereinigte HIV-Protease wurde mit synthetischem Peptid, das eine Schnittstelle im Gag-Precursor-Protein imitiert und eine in vivo-Spaltstelle der HIV-Protease darstellt, inkubiert. Die entstandenen Spaltprodukte des synthetischen Peptids wurden über Reverse Phase High Performance Liquid Chromatography (RP-HPLC) analysiert. Die angegebenen IC50-Werte beziehen sich auf die Substanzkonzentration, die unter den oben aufgeführten Testbedingungen eine 50%ige Hemmung der Protease-Aktivität bewirkt.

HIV = HIV infection in cell culture (PBL), suppression of virus-induced syncytia formation; type: cell-based; details: 50% suppression of virus-induced syncytia, read between day 3 and 6 after infection
Procedure: HIV-Infektion in Zellkultur
Der HIV-Test wurde mit geringen Modifikationen nach der Methode von Pauwels et al. [vgl. Journal of Virological Methods 20, (1988), 309-321] durchgeführt.
Normale menschliche Blutlymphozyten (PBL's) wurden über Ficoll-Hypaque angereichert und im RPMI 1640, 20% fötales Kälberserum mit Phytohaemagglutinin (90 µg/ml) und Interleukin-2 (40 U/ml) stimuliert. Zur Infektion mit dem in-fektiösen HIV wurden PBL's pelletiert und das Zellpellet wurde anschließend in 1 ml HIV-Virusadsorptionslösung suspendiert und 1 Stunde bei 37°C inkubiert.
Die Virusadsorptionslösung wurde zentrifugiert und das infizierte Zellpellet in Wachstumsmedium aufgenommen, so daß 1 x 10^5 Zellen pro ml eingestellt waren. Die derart infizierten Zellen wurden zu 1 x 10^4 Zellen/Napf in die Näpfe von 96er Mikrotiterplatten pipettiert.
Die erste vertikale Reihe der Mikrotiterplatte enthielt nur Wachstumsmedium und Zellen, die nicht infiziert, aber ansonsten genauso wie oben beschrieben, behandelt worden waren (Zellkontrolle). Die zweite vertikale Reihe der Mikrotiterplatte erhielt nur HIV-infizierte Zellen (Viruskontrolle) in Wachstumsmedium. Die übrigen Näpfe enthielten die erfindungsgemäßen Verbindungen in unterschiedlichen Konzentrationen, ausgehend von den Näpfen der 3. vertikalen Reihe der Mikrotiterplatte, von der die Prüfsubstanzen in 2er Schritten 2^10fach verdünnt wurden.
Die Testansätze wurden so lange bei 37°C inkubiert, bis in der unbehandelten Viruskontrolle die für das HIV typische Syncytienbildung auftrat (zwischen Tag 3 und 6 nach Infektion), die dann mikroskopisch ausgewertet wurde. In der unbehandelten Viruskontrolle resultierten unter diesen Testbedingungen etwa 20 Syncytien, währen die unbehandelte Zellkontrolle keine Syncytien aufwies.
Die IC50-Werte wurden als die Konzentration der behandelten und infizierten Zellen ermittelt, bei der 50% (ca. 10 Syncytien) der virusinduzierten Syncytien durch die Behandlung mit der erfindungsgemäßen Verbindung unterdrückt waren.

HIV-1-Protease [2] = biological target: T1, HIV-1-Protease; experiment: HIV-specific protease enzyme assay (purified HIV protease, synthetic peptide substrate, RP-HPLC analysis of cleavage products); type: biochemical; details: synthetic peptide imitating a Gag precursor cleavage site
[3] = HIV-1-Protease-Inhibition IC50, purified HIV protease
[4] = read-out: PBL IC50, HIV-infected normal human blood lymphocytes (PBL's)
[5] = Human immunodeficiency virus 1, Lymphocyte, 72 h, read-out: PBL IC50, HIV-infected normal human blood lymphocytes (PBL's)
[6] = purified HIV protease, read-out: HIV-1-Protease-Inhibition IC50

Row | SMILES | HIV-1-Protease-Inhibition IC95 (HIV-1-Protease [2]) | also measured
1 | NC(=O)C[C@H](NC(=O)c1cnc2ccccc2n1)C(=O)N[C@@H](Cc1ccccc1)[C@H](O)CN1[C@H](C(F)(F)F)C[C@@H]2CCC[C@@H]21 [Beispiel 1] | 1,9 x 10^-10 Mol/l | IC50 (HIV-1-Protease [1]; [3]): 0.018 nM; IC50 (HIV; [4]): 81.7 nM
2 | NC(=O)C[C@H](NC(=O)c1cnc2ccccc2n1)C(=O)N[C@@H](Cc1ccccc1)[C@H](O)CN1[C@H](C(F)(F)F)C[C@@H]2CCC[C@@H]21 [Beispiel 2] | 3,6 x 10^-11 Mol/l | IC50 (HIV-1-Protease [1]; read-out: HIV-1-Protease-Inhibition IC50, purified HIV protease): 0.017 nM; IC50 (HIV; [4]): 38.5 nM
3 | NC(=O)C[C@H](NC(=O)c1ccc2ccccc2n1)C(=O)N[C@@H](Cc1ccccc1)[C@H](O)CN1[C@H](C(F)(F)F)C[C@@H]2CCC[C@@H]21 [Beispiel 3, (2R,3S)-3-(Chinolin-2-yl-L-asparaginyl)-amino-1-[(S,S,S)-3-trifluormethyl-2-azabicyclo[3.3.0]octan-2-yl}-2-hydroxy-4-phenyl-butan] | 2,2 x 10^-8 Mol/l | IC50 (HIV-1-Protease [1]; [3]): 0.24 nM; IC50 (HIV; [5]): 35 nM
4 | NC(=O)C[C@H](NC(=O)c1ccc2ccccc2n1)C(=O)N[C@@H](Cc1ccccc1)[C@H](O)CN1[C@H](C(F)(F)F)C[C@@H]2CCC[C@@H]21 [Beispiel 4, (2R,3S)-3-(Chinolin-2-yl-L-asparaginyl)-amino-1-[(S,S,S)-3-trifluormethyl-2-azabicylco[3.3.0]octan-2-yl}-2-hydroxy-4-phenyl-butan Hydrochlorid] | 3,3 x 10^-8 Mol/l | IC50 (HIV-1-Protease [1]; [3]): 0.6 nM; IC50 (HIV; [4]): 22.5 nM
5 | Cc1cc2ncc(C(=O)N[C@@H](CC(N)=O)C(=O)N[C@@H](Cc3ccccc3)[C@H](O)CN3[C@H](C(F)(F)F)C[C@@H]4CCC[C@@H]43)nc2cc1C [Beispiel 8] | 3,2 x 10^-6 Mol/l | 
6 | Cc1cc2ncc(C(=O)N[C@@H](CC(N)=O)C(=O)N[C@@H](Cc3ccccc3)[C@H](O)CN3[C@H](C(F)(F)F)C[C@@H]4CCC[C@@H]43)nc2cc1C [Beispiel 9] | 2,6 x 10^-9 Mol/l | 
7 | Cc1ccc2nc(C(=O)N[C@@H](CC(N)=O)C(=O)N[C@@H](Cc3ccccc3)[C@H](O)CN3[C@H](C(F)(F)F)C[C@@H]4CCC[C@@H]43)ccc2c1 [Beispiel 10] | 3,1 x 10^-7 Mol/l | 
8 | Cc1ccc2nc(C(=O)N[C@@H](CC(N)=O)C(=O)N[C@@H](Cc3ccccc3)[C@H](O)CN3[C@H](C(F)(F)F)C[C@@H]4CCC[C@@H]43)ccc2c1 [Beispiel 11] | 3,6 x 10^-11 Mol/l | 
9 | NC(=O)C[C@H](NC(=O)c1ccc2cc(Cl)ccc2n1)C(=O)N[C@@H](Cc1ccccc1)[C@H](O)CN1[C@H](C(F)(F)F)C[C@@H]2CCC[C@@H]21 [Beispiel 12] | 3,7 x 10^-9 Mol/l | 
10 | NC(=O)C[C@H](NC(=O)c1ccc2cc(Cl)ccc2n1)C(=O)N[C@@H](Cc1ccccc1)[C@H](O)CN1[C@H](C(F)(F)F)C[C@@H]2CCC[C@@H]21 [Beispiel 13] | 2,5 x 10^-10 Mol/l | 
11 | NC(=O)C[C@H](NC(=O)COc1ccccc1-c1ccccc1)C(=O)N[C@@H](Cc1ccccc1)[C@H](O)CN1[C@H](C(F)(F)F)C[C@@H]2CCC[C@@H]21 [Beispiel 14] | 1,8 x 10^-7 Mol/l | IC50 (HIV-1-Protease [1]; [6]): 3.5 nM; IC50 (HIV; [5]): 600 nM
12 | NC(=O)C[C@H](NC(=O)COc1ccccc1-c1ccccc1)C(=O)N[C@@H](Cc1ccccc1)[C@H](O)CN1[C@H](C(F)(F)F)C[C@@H]2CCC[C@@H]21 [Beispiel 15] | 2,9 x 10^-8 Mol/l | IC50 (HIV-1-Protease [1]; [6]): 2.2 nM
13 | Cc1c(O)cccc1C(=O)N[C@@H](CC(N)=O)C(=O)N[C@@H](Cc1ccccc1)[C@H](O)CN1[C@H](C(F)(F)F)C[C@@H]2CCC[C@@H]21 [Beispiel 16] | 2,7 x 10^-6 Mol/l | IC50 (HIV-1-Protease [1]; [6]): 200 nM
14 | Cc1cnc(C)c(COC(=O)N[C@@H](CC(N)=O)C(=O)N[C@@H](Cc2ccccc2)[C@H](O)CN2[C@H](C(F)(F)F)C[C@@H]3CCC[C@@H]32)c1 [Beispiel 17] | 3,7 x 10^-5 Mol/l | IC50 (HIV-1-Protease [1]; [6]): 1900 nM
